Data taken from US8822517B2, “Arylosulfonamides for the treatment of CNS diseases” (Adamed SP. Z O.O., priority 2010, dated 2014).

Assays:
[1] = target: T1, serotonine transporter (SERT) receptor (Homo sapiens, UniProt P31645); assay: Binding assay SERT (h), [3H]imipramine, CHO cells; conditions: read-out: SERT [%]
T1 construct: expressed in transfected cells; host or cells: CHO cells
Procedure, shortened: (§1)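 Detection relied on scintillation counting of bound ligand. Compounds at 1×10^−6 M were evaluated against specific binding, i.e. total binding corrected for the nonspecific fraction seen with excess unlabelled ligand.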

[2] = system: sigma σ receptor; assay: Binding assay σ (non-selective), [3H]DTG, rat cerebral cortex; conditions: percent inhibition of control specific binding; compounds tested at 1×10^−6 M
Procedure, shortened: as §1

[3] = system: adrenergic α1 receptor; assay: Binding assay α1 (non-selective), [3H]prazosin, rat cerebral cortex; conditions: percent inhibition of control specific binding; compounds tested at 1×10^−6 M
Procedure, shortened: as §1

[4] = target: T2, muscarinic M3 receptor (Homo sapiens, UniProt P20309); assay: Binding assay M3 (h), [3H]4-DAMP, CHO cells; conditions: read-out: M3 [%]
T2 construct: expressed in transfected cells; host or cells: CHO cells
T2 sequence (P20309 whole entry): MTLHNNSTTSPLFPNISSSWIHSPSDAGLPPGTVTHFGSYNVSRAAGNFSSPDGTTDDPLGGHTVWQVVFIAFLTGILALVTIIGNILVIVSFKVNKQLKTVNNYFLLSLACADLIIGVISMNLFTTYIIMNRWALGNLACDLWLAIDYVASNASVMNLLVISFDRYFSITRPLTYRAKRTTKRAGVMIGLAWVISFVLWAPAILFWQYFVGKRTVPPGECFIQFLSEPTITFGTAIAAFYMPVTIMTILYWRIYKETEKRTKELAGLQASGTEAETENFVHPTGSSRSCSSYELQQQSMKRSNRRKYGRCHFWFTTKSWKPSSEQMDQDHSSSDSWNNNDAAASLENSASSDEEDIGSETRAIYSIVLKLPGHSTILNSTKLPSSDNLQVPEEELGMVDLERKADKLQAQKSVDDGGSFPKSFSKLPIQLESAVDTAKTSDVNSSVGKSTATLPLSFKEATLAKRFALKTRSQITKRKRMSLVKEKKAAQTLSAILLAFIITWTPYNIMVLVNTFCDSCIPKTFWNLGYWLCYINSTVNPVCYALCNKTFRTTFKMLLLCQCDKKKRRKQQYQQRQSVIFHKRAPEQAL
Procedure, shortened: as §1

[5] = target: T3, serotoninergic receptor 5-HT2C (Homo sapiens, UniProt P28335); assay: Binding assay 5-HT2C (h), [3H]mesulergine, HEK-293 cells; conditions: read-out: 5-HT2C [%]
T3 construct: expressed in transfected cells; host or cells: HEK-293 cells
T3 sequence (P28335 33-458): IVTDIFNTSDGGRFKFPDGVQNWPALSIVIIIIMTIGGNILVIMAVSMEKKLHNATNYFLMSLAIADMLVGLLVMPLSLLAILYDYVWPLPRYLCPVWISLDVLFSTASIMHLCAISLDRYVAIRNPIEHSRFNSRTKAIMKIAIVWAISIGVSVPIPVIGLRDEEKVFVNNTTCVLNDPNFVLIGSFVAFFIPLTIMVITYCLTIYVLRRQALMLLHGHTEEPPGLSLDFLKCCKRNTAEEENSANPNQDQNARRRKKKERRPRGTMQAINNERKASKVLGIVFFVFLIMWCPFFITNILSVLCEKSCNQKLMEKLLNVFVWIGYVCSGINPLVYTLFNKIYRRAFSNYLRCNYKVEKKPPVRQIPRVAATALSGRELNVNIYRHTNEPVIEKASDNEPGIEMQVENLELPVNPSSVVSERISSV
Procedure, shortened: as §1

[6] = target: T4, serotoninergic 5-HT6 receptor (Homo sapiens, UniProt P50406); assay: Cellular functional assay, serotoninergic 5-HT6 receptor (agonism/antagonism); assay type: cell-based; conditions: read-out: 5-HT6-antag. [%]
T4 sequence (P50406 whole entry): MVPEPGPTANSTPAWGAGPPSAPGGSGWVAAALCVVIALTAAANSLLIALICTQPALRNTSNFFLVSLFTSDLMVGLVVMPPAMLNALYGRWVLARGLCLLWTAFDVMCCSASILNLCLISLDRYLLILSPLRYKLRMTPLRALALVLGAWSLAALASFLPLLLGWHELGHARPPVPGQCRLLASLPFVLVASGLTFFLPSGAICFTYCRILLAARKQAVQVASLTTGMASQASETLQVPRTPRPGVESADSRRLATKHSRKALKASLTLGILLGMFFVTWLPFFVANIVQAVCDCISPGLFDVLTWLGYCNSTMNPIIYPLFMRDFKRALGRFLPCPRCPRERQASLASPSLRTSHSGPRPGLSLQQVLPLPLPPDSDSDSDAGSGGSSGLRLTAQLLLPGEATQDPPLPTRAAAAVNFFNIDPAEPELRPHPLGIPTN
Procedure: (§2) The compounds were tested at the concentration of 1×10^−6M.
(§3) In the Tables ag refers to agonism, and antag to antagonism).

[7] = target: T5, serotoninergic 5-HT7 receptor (Homo sapiens, UniProt P34969); assay: Cellular functional assay, serotoninergic 5-HT7 receptor (agonism/antagonism); assay type: cell-based; conditions: for activation at 1 µM: agonist effect, percent of control specific agonist response, compounds tested at 1×10^−6M, read-out: 5-HT7-ag [%]; for inhibition at 1 µM: read-out: 5-HT7-antag. [%]
T5 sequence (P34969 whole entry): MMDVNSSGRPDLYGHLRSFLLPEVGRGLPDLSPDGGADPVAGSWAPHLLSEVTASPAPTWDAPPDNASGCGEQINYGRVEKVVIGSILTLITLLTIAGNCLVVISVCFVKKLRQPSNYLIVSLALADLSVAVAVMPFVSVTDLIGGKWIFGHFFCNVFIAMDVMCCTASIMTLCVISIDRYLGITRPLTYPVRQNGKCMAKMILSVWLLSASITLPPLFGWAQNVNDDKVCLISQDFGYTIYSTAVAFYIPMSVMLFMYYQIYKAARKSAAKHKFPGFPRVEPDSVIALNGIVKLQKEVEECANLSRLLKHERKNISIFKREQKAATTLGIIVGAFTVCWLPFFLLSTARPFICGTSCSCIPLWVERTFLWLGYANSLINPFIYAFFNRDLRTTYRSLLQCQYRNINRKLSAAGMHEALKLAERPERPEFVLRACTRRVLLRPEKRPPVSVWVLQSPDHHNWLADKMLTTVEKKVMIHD
Procedure: as §2, §3

[8] = target: dopaminergic D3 receptor (Homo sapiens, UniProt P35462); assay: Binding assay D3 (h), [3H]methyl-spiperone, CHO cells; parameters: expressed in transfected cells; host or cells: CHO cells; conditions: read-out: D3 [%]
Chain of dopaminergic D3 receptor (P35462 whole entry): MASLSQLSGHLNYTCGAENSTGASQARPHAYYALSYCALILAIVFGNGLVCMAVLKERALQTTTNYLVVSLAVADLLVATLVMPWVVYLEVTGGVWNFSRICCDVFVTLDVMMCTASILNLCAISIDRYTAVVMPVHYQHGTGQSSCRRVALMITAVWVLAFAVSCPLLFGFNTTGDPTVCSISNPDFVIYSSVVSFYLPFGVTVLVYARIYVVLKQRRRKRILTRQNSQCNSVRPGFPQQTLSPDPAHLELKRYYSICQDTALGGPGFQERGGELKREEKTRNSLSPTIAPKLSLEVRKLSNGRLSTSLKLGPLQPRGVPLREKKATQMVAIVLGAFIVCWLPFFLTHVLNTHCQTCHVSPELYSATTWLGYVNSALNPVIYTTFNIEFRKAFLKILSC
Procedure, shortened: as §1

[9] = target: T4, serotoninergic 5-HT6 receptor; assay: Binding assay 5-HT6 (h), [3H]LSD, CHO cells; parameters: expressed in transfected cells; host or cells: CHO cells; conditions: read-out: 5-HT6
Procedure, shortened: as §1

[10] = target: T5, serotoninergic 5-HT7 receptor; assay: Binding assay 5-HT7 (h), [3H]LSD, CHO cells; parameters: expressed in transfected cells; host or cells: CHO cells; conditions: read-out: 5-HT7
Procedure, shortened: as §1

[11] = target: T6, adrenergic α2C receptor (Homo sapiens, UniProt P18825); assay: Binding assay α2C (h), [3H]RX 821002, CHO cells; parameters: expressed in transfected cells; host or cells: CHO cells; conditions: read-out: α2C [%]
T6 sequence (P18825 1-462): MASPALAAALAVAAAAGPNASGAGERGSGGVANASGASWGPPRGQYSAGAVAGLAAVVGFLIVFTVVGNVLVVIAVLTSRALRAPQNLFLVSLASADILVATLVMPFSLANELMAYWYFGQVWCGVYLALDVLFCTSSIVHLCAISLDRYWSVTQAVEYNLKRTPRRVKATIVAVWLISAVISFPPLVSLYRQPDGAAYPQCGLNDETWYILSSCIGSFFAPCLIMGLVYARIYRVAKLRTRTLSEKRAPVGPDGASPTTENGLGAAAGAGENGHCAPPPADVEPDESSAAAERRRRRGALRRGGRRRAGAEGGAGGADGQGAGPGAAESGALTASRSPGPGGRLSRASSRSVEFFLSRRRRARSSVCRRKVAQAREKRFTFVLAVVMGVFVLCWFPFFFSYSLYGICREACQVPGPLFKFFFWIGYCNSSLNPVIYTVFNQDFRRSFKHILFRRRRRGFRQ
Procedure, shortened: as §1

[12] = target: T7, dopaminergic D2 receptor (Homo sapiens, UniProt P14416); assay: Binding assay D2S (h), [3H]methyl-spiperone, HEK-293 cells; parameters: expressed in transfected cells; host or cells: HEK-293 cells; conditions: read-out: D2 [%]
Procedure, shortened: as §1
Target sequence in this assay (P14416 1-414 isoform P14416-2): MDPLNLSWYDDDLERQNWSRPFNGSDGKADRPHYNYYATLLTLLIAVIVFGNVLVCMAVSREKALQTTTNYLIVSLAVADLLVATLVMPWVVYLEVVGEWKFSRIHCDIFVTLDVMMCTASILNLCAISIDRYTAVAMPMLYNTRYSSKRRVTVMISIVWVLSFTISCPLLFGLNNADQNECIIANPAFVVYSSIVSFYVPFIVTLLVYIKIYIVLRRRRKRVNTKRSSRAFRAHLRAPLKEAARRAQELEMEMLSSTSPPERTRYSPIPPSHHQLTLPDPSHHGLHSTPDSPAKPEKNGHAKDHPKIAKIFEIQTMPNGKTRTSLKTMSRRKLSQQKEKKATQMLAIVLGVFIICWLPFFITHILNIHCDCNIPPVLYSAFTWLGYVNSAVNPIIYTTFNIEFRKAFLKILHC

[13] = target: T8, serotoninergic 5-HT1A receptor (Homo sapiens, UniProt P08908); assay: Binding assay 5-HT1A (h), [3H]8-OH-DPAT, HEK-293 cells; parameters: expressed in transfected cells; host or cells: HEK-293 cells; conditions: read-out: 5-HT1A
T8 sequence (P08908 1-422): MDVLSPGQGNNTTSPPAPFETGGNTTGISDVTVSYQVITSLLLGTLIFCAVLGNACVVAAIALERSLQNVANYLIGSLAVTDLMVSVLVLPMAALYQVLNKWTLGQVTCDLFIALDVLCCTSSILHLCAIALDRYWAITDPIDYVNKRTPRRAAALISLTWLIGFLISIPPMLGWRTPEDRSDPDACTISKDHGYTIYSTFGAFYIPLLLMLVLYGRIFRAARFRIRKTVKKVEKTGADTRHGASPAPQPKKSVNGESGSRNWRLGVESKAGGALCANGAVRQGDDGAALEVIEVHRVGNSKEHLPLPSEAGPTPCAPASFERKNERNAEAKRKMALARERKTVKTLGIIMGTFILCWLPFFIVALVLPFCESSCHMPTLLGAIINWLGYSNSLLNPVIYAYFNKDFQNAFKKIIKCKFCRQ
Procedure, shortened: as §1

[14] = target: serotoninergic 5-HT2A receptor (Homo sapiens, UniProt P28223); assay: Binding assay 5-HT2A (h), [3H]ketanserin, HEK-293 cells; parameters: expressed in transfected cells; host or cells: HEK-293 cells; conditions: read-out: 5-HT2A
Chain of serotoninergic 5-HT2A receptor (P28223 whole entry): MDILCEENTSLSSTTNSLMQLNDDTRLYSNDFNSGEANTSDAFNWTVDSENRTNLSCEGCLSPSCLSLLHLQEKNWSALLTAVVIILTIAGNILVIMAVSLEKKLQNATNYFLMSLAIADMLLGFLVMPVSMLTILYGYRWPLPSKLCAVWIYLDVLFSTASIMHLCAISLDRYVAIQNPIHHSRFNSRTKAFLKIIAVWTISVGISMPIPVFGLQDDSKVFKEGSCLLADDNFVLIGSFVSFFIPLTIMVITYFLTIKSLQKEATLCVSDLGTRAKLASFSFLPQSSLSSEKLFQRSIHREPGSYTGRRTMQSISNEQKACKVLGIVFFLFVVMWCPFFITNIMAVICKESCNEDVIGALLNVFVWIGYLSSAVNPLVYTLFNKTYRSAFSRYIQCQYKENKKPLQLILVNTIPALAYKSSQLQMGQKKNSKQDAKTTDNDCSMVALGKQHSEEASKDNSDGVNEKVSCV
Procedure, shortened: as §1

[15] = target: histaminergic H1 receptor (Homo sapiens, UniProt P35367); assay: Binding assay H1 (h), [3H]pyrilamine, HEK-293 cells; parameters: expressed in transfected cells; host or cells: HEK-293 cells; conditions: read-out: H1 [%]
Procedure, shortened: as §1

[16] = target: hERG potassium channels (Homo sapiens, UniProt Q12809); assay: hERG potassium channel block, electrophysiology (IonWorks Quattro), CHO cells; conditions: % block of hERG current, cloned hERG channels in CHO cells, IonWorks Quattro
Chain of hERG potassium channels (Q12809 whole entry): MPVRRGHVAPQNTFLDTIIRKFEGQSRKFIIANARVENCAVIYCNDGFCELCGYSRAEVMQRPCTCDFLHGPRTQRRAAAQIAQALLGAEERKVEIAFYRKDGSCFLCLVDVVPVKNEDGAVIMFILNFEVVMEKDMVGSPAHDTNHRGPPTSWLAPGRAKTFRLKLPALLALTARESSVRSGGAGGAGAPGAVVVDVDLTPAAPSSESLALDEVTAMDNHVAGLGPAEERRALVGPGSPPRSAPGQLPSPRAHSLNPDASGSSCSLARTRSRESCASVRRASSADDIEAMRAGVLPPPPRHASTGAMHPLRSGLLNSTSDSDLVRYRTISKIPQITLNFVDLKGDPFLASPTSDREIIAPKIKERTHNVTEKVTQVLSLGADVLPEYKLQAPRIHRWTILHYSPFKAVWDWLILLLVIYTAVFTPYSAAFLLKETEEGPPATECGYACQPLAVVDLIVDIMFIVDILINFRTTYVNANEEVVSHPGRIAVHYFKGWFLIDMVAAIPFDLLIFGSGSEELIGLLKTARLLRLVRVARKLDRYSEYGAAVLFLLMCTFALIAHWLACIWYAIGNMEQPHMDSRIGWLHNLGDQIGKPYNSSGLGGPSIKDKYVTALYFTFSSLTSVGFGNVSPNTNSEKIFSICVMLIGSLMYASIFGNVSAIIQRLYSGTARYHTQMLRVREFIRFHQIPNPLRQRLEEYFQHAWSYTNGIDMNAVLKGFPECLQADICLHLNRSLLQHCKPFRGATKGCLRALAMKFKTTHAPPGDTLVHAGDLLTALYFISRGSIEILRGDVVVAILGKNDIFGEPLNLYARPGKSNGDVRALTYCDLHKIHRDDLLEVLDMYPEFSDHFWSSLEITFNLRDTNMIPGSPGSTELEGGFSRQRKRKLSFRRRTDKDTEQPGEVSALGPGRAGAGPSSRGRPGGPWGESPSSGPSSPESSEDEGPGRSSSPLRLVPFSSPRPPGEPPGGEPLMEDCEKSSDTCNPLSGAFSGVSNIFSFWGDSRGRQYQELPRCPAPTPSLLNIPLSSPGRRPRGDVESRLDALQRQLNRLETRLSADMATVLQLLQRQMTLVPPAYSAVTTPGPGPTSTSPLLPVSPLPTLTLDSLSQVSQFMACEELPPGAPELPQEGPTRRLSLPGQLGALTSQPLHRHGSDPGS

[17] = target: T7, dopaminergic D2 receptor; assay: Cellular functional assay, dopaminergic D2 receptor (agonism/antagonism); assay type: cell-based; conditions: HEK293
Procedure: as §2, §3
Target sequence in this assay (P14416 whole entry): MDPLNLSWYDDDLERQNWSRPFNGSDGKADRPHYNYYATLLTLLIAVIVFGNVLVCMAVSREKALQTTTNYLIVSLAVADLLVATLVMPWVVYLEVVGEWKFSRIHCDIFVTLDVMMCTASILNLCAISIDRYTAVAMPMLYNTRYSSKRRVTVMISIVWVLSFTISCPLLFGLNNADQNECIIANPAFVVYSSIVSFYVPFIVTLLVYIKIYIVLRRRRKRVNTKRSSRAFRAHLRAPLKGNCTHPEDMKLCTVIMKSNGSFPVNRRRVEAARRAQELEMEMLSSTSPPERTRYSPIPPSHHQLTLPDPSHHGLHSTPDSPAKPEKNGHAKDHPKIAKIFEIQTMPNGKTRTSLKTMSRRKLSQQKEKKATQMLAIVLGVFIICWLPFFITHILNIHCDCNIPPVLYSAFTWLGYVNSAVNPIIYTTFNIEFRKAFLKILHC

[18] = target: T8, serotoninergic 5-HT1A receptor; assay: Cellular functional assay, serotoninergic 5-HT1A receptor (agonism/antagonism); assay type: cell-based
Procedure: as §2, §3

T1 sequence (P31645 whole entry): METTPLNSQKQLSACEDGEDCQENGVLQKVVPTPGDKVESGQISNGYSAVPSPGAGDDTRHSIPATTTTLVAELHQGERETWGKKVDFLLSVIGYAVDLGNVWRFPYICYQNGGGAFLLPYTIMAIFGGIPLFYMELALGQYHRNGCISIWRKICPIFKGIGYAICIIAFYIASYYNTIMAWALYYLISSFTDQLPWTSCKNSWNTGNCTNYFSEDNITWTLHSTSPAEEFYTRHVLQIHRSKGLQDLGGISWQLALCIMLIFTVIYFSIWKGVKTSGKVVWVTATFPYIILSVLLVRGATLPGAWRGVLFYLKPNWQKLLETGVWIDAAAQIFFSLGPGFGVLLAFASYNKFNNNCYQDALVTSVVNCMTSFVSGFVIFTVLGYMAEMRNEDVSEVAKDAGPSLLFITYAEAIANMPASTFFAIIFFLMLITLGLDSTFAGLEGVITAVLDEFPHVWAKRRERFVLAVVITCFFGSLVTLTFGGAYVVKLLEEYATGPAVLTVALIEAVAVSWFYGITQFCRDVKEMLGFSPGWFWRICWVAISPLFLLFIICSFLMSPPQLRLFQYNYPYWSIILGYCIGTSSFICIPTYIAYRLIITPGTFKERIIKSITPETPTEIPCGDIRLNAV

Row | Compound | inhibition at 1 µM [1] | σ [%] [2] | α1 [%] [3] | inhibition at 1 µM [4] | inhibition at 1 µM [5] | activation at 1 µM [7] | inhibition at 1 µM [7] | inhibition at 1 µM [8] | inhibition at 1 µM [9] | inhibition at 1 µM [10] | inhibition at 1 µM [11] | inhibition at 1 µM [12] | inhibition at 1 µM [13] | inhibition at 1 µM [14] | inhibition at 1 µM [15] | hERG [%] [16] | other results
1 | O=S(=O)(NCCCN1CCN(c2nsc3ccccc23)CC1)c1cccc2ccccc12 [Compound 5, N-(3-(4-(1,2-Benzothiazol-3-yl)piperazin-1-yl)propyl)naphthalene-1-sulphonamide] | 84% | 72% | 98% | 7% | 81% | -1% | 85% | 98% | 84% | 98% | 99% | 96% | 99% | 99% | 92% | 17% | inhibition at 1 µM [6]: 18%
2 | O=S(=O)(NCCCCN1CCN(c2cccc3[nH]ccc23)CC1)c1c[nH]c2ncccc12 [Compound 31, N-{4-[4-(1H-Indol-4-yl)piperazin-1-yl]butyl}-1H-pyrrolo[2,3-b]pyridine-3-sulphonamide] | -2% | – | 101% | – | – | – | – | 96% | 18% | 87% | – | 38% | 82% | 36% | – | 2% | –
3 | O=S(=O)(NCCCCN1CCN(c2cccc3[nH]ccc23)CC1)c1ccc(F)c(F)c1 [Compound 29, 3,4-Difluoro-N-{4-[4-(1H-indol-4-yl)piperazin-1-yl]butyl}benzenesulphonamide] | 12% | 93% | 99% | 25% | 11% | 5% | 9% | 98% | 37% | 91% | 98% | 94% | 99% | 64% | 74% | – | activation at 1 µM ([17]; agonist effect, percent of control specific agonist response (3 μM dopamine for control), 1×10^−6 M, D2S (h), HEK-293 cells, read-out: D2-ag [%]): 45%; inhibition at 1 µM ([17]; read-out: D2-antag. [%]): 99%; inhibition at 1 µM ([18]; CHO, read-out: 5-HT1A-antag. [%]): 26%; activation at 1 µM ([18]; agonist effect, percent of control specific agonist response (100 nM 8-OH-DPAT for control), 1×10^−6 M, 5-HT1A (h), CHO cells, read-out: 5-HT1A-ag [%]): 71%
